Measured values as given in ChEMBL document CHEMBL1140771, “Heteroallyl-containing 5-nitrofuranes as new anti-Trypanosoma cruzi agents with a dual mechanism of action” (Bioorg Med Chem, 2008).
Converted amounts (≈) assume the structure as drawn.

What was measured:
[1] = system: Trypanosoma cruzi; assay: Inhibition of sterol biosynthesis in Trypanosoma cruzi EP epimastigotes assessed as ergosterol levels at 30 uM after 120 hrs; assay type: functional; design: scale not given: the % may be the effect or the level left
[2] = system: Trypanosoma cruzi; assay: Inhibition of sterol biosynthesis in Trypanosoma cruzi EP epimastigotes assessed as endogenous squalene levels at 30 uM after 120 hrs; assay type: functional; design: scale not given: the % may be the effect or the level left
[3] = system: Trypanosoma cruzi; assay: Inhibition of sterol biosynthesis in Trypanosoma cruzi EP epimastigotes assessed as 24-ethyl-5,7,22-cholestatrien-3beta-ol levels at 30 uM after 120 hrs; assay type: functional; design: scale not given: the % may be the effect or the level left
[4] = system: Trypanosoma cruzi; assay: Antitrypanosomal activity against Trypanosoma cruzi EP epimastigotes after 96 hrs; assay type: functional
[5] = system: Trypanosoma cruzi; assay: Inhibition of sterol biosynthesis in Trypanosoma cruzi EP epimastigotes assessed as exogenous cholesterol levels at 30 uM after 120 hrs; assay type: functional; design: scale not given: the % may be the effect or the level left
[6] = system: Trypanosoma cruzi; assay: Inhibition of sterol biosynthesis in Trypanosoma cruzi EP epimastigotes assessed as exogenous cholesterol levels at 10 uM after 120 hrs; assay type: functional; design: scale not given: the % may be the effect or the level left
[7] = system: Trypanosoma cruzi; assay: Inhibition of sterol biosynthesis in Trypanosoma cruzi EP epimastigotes assessed as endogenous squalene levels at 3 uM after 120 hrs; assay type: functional; design: scale not given: the % may be the effect or the level left
[8] = system: Trypanosoma cruzi; assay: Inhibition of sterol biosynthesis in Trypanosoma cruzi EP epimastigotes assessed as 24-ethyl-5,7,22-cholestatrien-3beta-ol levels at 3 uM after 120 hrs; assay type: functional; design: scale not given: the % may be the effect or the level left
[9] = system: Trypanosoma cruzi; assay: Inhibition of sterol biosynthesis in Trypanosoma cruzi EP epimastigotes assessed as ergosta-5,7-dien-3beta-ol levels at 3 uM after 120 hrs; assay type: functional; design: scale not given: the % may be the effect or the level left
[10] = system: Trypanosoma cruzi; assay: Inhibition of sterol biosynthesis in Trypanosoma cruzi EP epimastigotes assessed as ergosterol levels at 3 uM after 120 hrs; assay type: functional; design: scale not given: the % may be the effect or the level left
[11] = system: Trypanosoma cruzi; assay: Inhibition of sterol biosynthesis in Trypanosoma cruzi EP epimastigotes assessed as exogenous cholesterol levels at 3 uM after 120 hrs; assay type: functional; design: scale not given: the % may be the effect or the level left
[12] = system: Trypanosoma cruzi; assay: Inhibition of sterol biosynthesis in Trypanosoma cruzi EP epimastigotes assessed as endogenous squalene levels at 10 uM after 120 hrs; assay type: functional; design: scale not given: the % may be the effect or the level left
[13] = system: Trypanosoma cruzi; assay: Inhibition of sterol biosynthesis in Trypanosoma cruzi EP epimastigotes assessed as ergosta-5,7-24(24')-trien-3beta-ol levels at 3 uM after 120 hrs; assay type: functional; design: scale not given: the % may be the effect or the level left
[14] = system: Trypanosoma cruzi; assay: Effect on oxygen redox cycling in Trypanosoma cruzi Y epimastigotes assessed as rate of oxygen consumption at 80 uM in presence of cyanide relative to control; assay type: functional
[15] = system: Trypanosoma cruzi; assay: Antitrypanosomal activity against Trypanosoma cruzi EP amastigotes; assay type: functional, organism-based
[16] = system: Trypanosoma cruzi; assay: Inhibition of sterol biosynthesis in Trypanosoma cruzi EP epimastigotes assessed as 24-ethyl-5,7-cholestadien-3beta-ol levels at 10 uM after 120 hrs; assay type: functional; design: scale not given: the % may be the effect or the level left
[17] = system: Vero; assay: Cytotoxicity against african green monkey Vero cells; assay type: cell-based; conditions: Chlorocebus sabaeus
[18] = system: Trypanosoma cruzi; assay: Effect on oxygen redox cycling in Trypanosoma cruzi Y epimastigotes assessed as rate of oxygen consumption at 120 uM in presence of cyanide relative to control; assay type: functional
[19] = system: Trypanosoma cruzi; assay: Antitrypanosomal activity against Trypanosoma cruzi Y epimastigotes after 48 hrs by MTT assay; assay type: functional, organism-based
[20] = system: Trypanosoma cruzi; assay: Antitrypanosomal activity against Trypanosoma cruzi EP amastigotes in Vero cells after 96 hrs; assay type: functional
[21] = system: Trypanosoma cruzi; assay: Effect on oxygen uptake in Trypanosoma cruzi Y epimastigotes assessed as rate of oxygen consumption at 120 uM relative to control; assay type: functional
[22] = system: Trypanosoma cruzi; assay: Effect on oxygen uptake in Trypanosoma cruzi Y epimastigotes assessed as rate of oxygen consumption at 80 uM relative to control; assay type: functional
[23] = system: Trypanosoma cruzi; assay: Inhibition of sterol biosynthesis in Trypanosoma cruzi EP epimastigotes assessed as ergosta-5,7-dien-3beta-ol levels at 10 uM after 120 hrs; assay type: functional; design: scale not given: the % may be the effect or the level left
[24] = system: Trypanosoma cruzi; assay: Inhibition of sterol biosynthesis in Trypanosoma cruzi EP epimastigotes assessed as ergosta-5,7-24(24')-trien-3beta-ol levels at 10 uM after 120 hrs; assay type: functional; design: scale not given: the % may be the effect or the level left
[25] = system: Trypanosoma cruzi; assay: Inhibition of sterol biosynthesis in Trypanosoma cruzi EP epimastigotes assessed as ergosterol levels at 10 uM after 120 hrs; assay type: functional; design: scale not given: the % may be the effect or the level left
[26] = system: Trypanosoma cruzi; assay: Effect on oxygen uptake in Trypanosoma cruzi Y epimastigotes assessed as rate of oxygen consumption at 60 uM relative to control; assay type: functional
[27] = system: Trypanosoma cruzi; assay: Inhibition of sterol biosynthesis in Trypanosoma cruzi EP epimastigotes assessed as 24-ethyl-5,7-cholestadien-3beta-ol levels at 3 uM after 120 hrs; assay type: functional; design: scale not given: the % may be the effect or the level left
[28] = system: Trypanosoma cruzi; assay: Effect on oxygen redox cycling in Trypanosoma cruzi Y epimastigotes assessed as rate of oxygen consumption at 60 uM in presence of cyanide relative to control; assay type: functional
[29] = system: Trypanosoma cruzi; assay: Inhibition of sterol biosynthesis in Trypanosoma cruzi EP epimastigotes assessed as ergosta-5,7-24(24')-trien-3beta-ol levels at 30 uM after 120 hrs; assay type: functional; design: scale not given: the % may be the effect or the level left
[30] = system: Trypanosoma cruzi; assay: Inhibition of sterol biosynthesis in Trypanosoma cruzi EP epimastigotes assessed as ergosta-5,7-dien-3beta-ol levels at 30 uM after 120 hrs; assay type: functional; design: scale not given: the % may be the effect or the level left
[31] = system: Trypanosoma cruzi; assay: Effect on oxygen redox cycling in Trypanosoma cruzi Y epimastigotes assessed as rate of oxygen consumption at 166 uM in presence of cyanide relative to control; assay type: functional
[32] = system: Trypanosoma cruzi; assay: Effect on oxygen uptake in Trypanosoma cruzi Y epimastigotes assessed as rate of oxygen consumption at 166 uM relative to control; assay type: functional

Row | Compound | Activity [1] [%] | Activity [2] [%] | Activity [3] [%] | MIC [4] [µM] | Activity [5] [%] | Activity [6] [%] | Activity [7] [%] | Activity [8] [%] | Activity [9] [%] | Activity [10] [%] | Activity [11] [%] | Activity [12] [%] | IC50 [15] [µM] | IC50 [17] [µM] | IC50 [19] [µM] | MIC [20] [µM] | further results
1 | C=CCOC(=O)N/N=C/c1ccc([N+](=O)[O-])o1 | 7 | 33.1 | 6.8 | 30 (≈ 7.18 µg/mL) | 53.1 |  |  |  |  |  |  |  |  |  |  |  | 
2 | C=C(C)CNC(=O)N/N=C/C=C/c1ccc([N+](=O)[O-])o1 |  |  |  | 10 (≈ 2.78 µg/mL) |  | 9.2 | 44.4 | 10.8 | 6.1 | 18.4 | 20.3 | 90.8 |  |  |  |  | 
3 | O=C(N/N=C/C=C/c1ccc([N+](=O)[O-])o1)OC/C=C/c1ccccc1 |  |  |  | 10 (≈ 3.41 µg/mL) |  | 6.7 | 19 | 16 | 8 | 21 | 33.9 | 93.3 | 0.65 | 11.1 | 3.7 | 10 (≈ 3.41 µg/mL) | Activity [13]: 2.1%; Activity [14]: 38%; Activity [16]: 6.7%; Activity [18]: 40%; Activity [21]: 160%; Activity [22]: 89%
4 | O=C(N/N=C/c1ccc([N+](=O)[O-])o1)OC/C=C/c1ccccc1 | 5.8 | 64.4 | 7.8 | 30 (≈ 9.46 µg/mL) | 22 | 52.5 |  |  |  |  |  | 16 |  |  |  |  | Activity [23]: 5%; Activity [24]: 2.3%; Activity [25]: 10.4%
5 | O=C(N/N=C/c1ccc([N+](=O)[O-])o1)Oc1ccccc1 |  |  |  | 10 (≈ 2.75 µg/mL) |  | 35 | 39.1 | 9 | 6 | 7.6 | 32.3 | 60.6 | 2.3 | 19.4 | 10.6 | 30 (≈ 8.26 µg/mL) | Activity [13]: 2.4%; Activity [26]: 105%; Activity [27]: 3.6%; Activity [25]: 4.4%; Activity [28]: 31%
6 | C=C(C)CNC(=O)N/N=C/c1ccc([N+](=O)[O-])o1 |  |  |  | 10 (≈ 2.52 µg/mL) |  | 31.9 |  |  |  |  |  | 68.1 | 0.9 | 32.1 | 3.8 | 10 (≈ 2.52 µg/mL) | Activity [14]: 33%; Activity [18]: 27%; Activity [21]: 148%; Activity [22]: 110%
7 | C=CCOC(=O)N/N=C/C=C/c1ccc([N+](=O)[O-])o1 | 15 | 36.4 | 10.6 | > 30 | 29.4 |  |  |  |  |  |  |  |  |  |  |  | Activity [29]: 4%; Activity [30]: 4.6%
8 | O=C(N/N=C/C=C/c1ccc([N+](=O)[O-])o1)Oc1ccccc1 |  |  |  | 3 (≈ 0.904 µg/mL) |  | 8.1 | 45.2 |  |  | 7.9 | 46.9 | 91.9 | 0.31 | 9.1 | 6.7 | 3 (≈ 0.904 µg/mL) | Activity [31]: 8%; Activity [32]: 88%
